Bridge positions count the residues as written; N and C are the ends. Square brackets hold non-standard residues; d marks the D form. Peptide text beside a SMILES is read from it. I, II: the chains in the order shown. Dap = NC[C@H](N)C(=O)O; Ahx = NCCCCCC(=O)O
Experiments:
S. aureus JAR060131 = assay: Bactericidal (time-kill) kinetics; type: cell-based, Staphylococcus aureus; settings: for Time to complete bacterial eradication: all tested concentrations (0.94, 1.88, 3.75 µM); for Log reduction in CFU: within 5 min at 3.75 µM
Protocol: (§1) Time-kill kinetics were evaluated against S. aureus JAR060131 and A. baumannii RUH875. Mid-logarithmic phase bacterial cultures were diluted to a final concentration of 1 × 10^6 CFU/mL in PBS. Bacteria were incubated with 0.5-, 2-, and 4-fold the LC99.9. Assays were conducted in polypropylene tubes (Micronics) with a total volume of 500 µL. Control samples consisted of bacteria incubated in PBS alone. At 1, 5, 30, and 120 min, 50 µL samples were collected and immediately added to 50 µL of 0.05% (v/v) sodium polyanethol sulfonate (SPS; Sigma-Aldrich) in PBS to neutralize residual peptide activity ([Dankert et al., 1995]). Viable bacterial counts were determined by plating 10 µL of serial 10-fold dilutions onto BA plates. Colonies were counted after 24 h of incubation at 37 °C. All conditions were performed in triplicate.

A. baumannii RUH875 = assay: Bactericidal (time-kill) kinetics; type: cell-based, Acinetobacter baumannii; settings: for Time to complete killing: 3.75 µM peptide
Protocol: as §1

[1] = tested on: HaCaT human keratinocytes; assay: Cytotoxicity (WST-1 and LDH); type: cell-based
Protocol: (§2) Cells (5 × 10^5 cells/mL) were seeded in 96-well plates (100 μL/well; Thermo Scientific) and allowed to adhere for 24 h. After adhesion, monolayers were exposed to two-fold serial dilutions of the tetrameric and reference peptides (final concentrations: 60–0.05 µM) in fresh DMEM containing 2% (v/v) FBS, and incubated for 24 h at 37 °C in a humidified 5% CO2 atmosphere. Cell viability was assessed using the water-soluble tetrazolium salt (WST-1; Roche) assay, and membrane integrity was measured using the lactate dehydrogenase (LDH) release assay (Abcam), following manufacturer instructions. Absorbance was measured using the Synergy H1 microplate reader (Biotek). Results are expressed as percentages relative to untreated control (for WST-1) and positive lysis control (for LDH) and all experiments were performed in triplicate.

[2] = tested on: human skin fibroblast cells (BJ); assay: Cytotoxicity (WST-1 and LDH); type: cell-based
Protocol: as §2

[3] = tested on: TNF-α production by dTHP-1 macrophages stimulated with LPS (E. coli O111:B4); assay: Endotoxin neutralization, LPS-stimulated macrophages; type: cell-based, human; settings: LPS 5 ng/mL with 1 or 2 µM peptide, 4 h, serum-free RPMI, ELISA, versus NT
Protocol: (§3) The endotoxin-neutralizing capacity of the peptides was assessed by measuring tumor necrosis factor-alpha (TNF-α) production by dTHP-1 macrophages. dTHP-1 macrophages were stimulated with either lipopolysaccharide (LPS; E. coli O111:B4; 5 ng/mL, Sigma-Aldrich) or UV-inactivated S. aureus JAR060131 (MOI 2; as described in Section 5.2), in the presence or absence of one or 2 µM peptides. Cells were cultured in serum-free RPMI and incubated for 4 h at 37 °C with 5% CO2. Positive controls consisted of cells stimulated with LPS or UV-S. aureus without peptide treatment (no treatment, NT), and unstimulated cells served as negative controls. After stimulation, cell supernatants were collected, and cytokine levels of TNF-α were quantified using human ELISA kits (R&D Systems, USA) according to the manufacturer’s instructions. Each condition was tested in triplicate.

[4] = tested on: TNF-α production by dTHP-1 macrophages stimulated with UV-inactivated S. aureus JAR060131; assay: Endotoxin neutralization, UV-inactivated S. aureus-stimulated macrophages; type: cell-based; settings: MOI 2 with 1 or 2 µM peptide, 4 h, ELISA, versus NT
Protocol: as §3

[5] = tested on: S. aureus LUH14616 (MRSA); assay: Ex vivo human skin wound infection model; design: species or system Staphylococcus aureus
Source text: Human skin from 3 donors was obtained via the Residual Tissue Biobank of the Red Cross Hospital (Beverwijk, Netherlands). The use of these coded, post-operative residual tissue samples was approved by patients through the informed opt-out-plus protocol of the Red Cross Hospital Skin ([Code-of-Conduct-for-Health-Research, 2022]) and processed for an ex vivo wound infection model as described ([Dijksteel et al., 2020]). The Wounded skin grafts were sectioned into approximately 1 cm^2 samples using a sterile scalpel and were decontaminated by immersion in 70% ethanol for 30 min, followed by three PBS washes. Samples were placed dermis-down and wound-side-up on stainless steel grids with central indentations, positioned in 12-well plates, and cultured at the air–liquid interface in DMEM at 37 °C and 5% CO2. To confine reagents to the wound area, a resin barrier (OpalDam; Ultradent) was applied to the wounded area and polymerized using a hand-held UV light (Valo X) for 10 s. The wounds were then topically infected with 10 µL of S. aureus LUH14616 suspension of 1 × 10^7 CFU/mL (final dose: 1 × 10^5 CFU/graft) in PBS for 1 h, followed by topical application of 10 µL of peptide solution for 4 h. Chlorhexidine (0.5% (v/v) in 70% ethanol; Entick B.V.) and PBS were used as positive and negative controls, respectively. After treatment, tissue samples were transferred to polypropylene vials containing 1 mL PBS supplemented with 0.025% (v/v) SPS and a 7 mm stainless steel bead. Homogenization was performed using a MagnaLyser System (Roche) with three 30-s cycles at 7,000 rpm, with 30 s of cooling on ice between cycles. Homogenates were 10-fold serially diluted in PBS, and 100 µL aliquots were plated on BA plates. CFUs were enumerated after overnight incubation at 37 °C.

[6] = 20 µM and 200 µM topical, 1 h infection, 4 h treatment, versus PBS (Figure 4B)

Structure (SMILES) | Time to complete bacterial eradication (S. aureus JAR060131) | Log reduction in CFU (S. aureus JAR060131) | Time to complete killing (A. baumannii RUH875) | Cytotoxicity, LDH leakage [1] | Cytotoxicity, Metabolic activity [1] | Cytotoxicity, LDH leakage [2] | Cytotoxicity, Metabolic activity [2] | Reduction of LPS-induced TNFα levels [3] | Reduction of TNFα production induced by UV-inactivated S. aureus [4] | Reduction of bacterial load (CFU counts) [5, 6] | Log reduction in CFU (A. baumannii RUH875; within 1 min at 3.75 µM) | Cytotoxicity threshold (tolerance), WST-1 and LDH [1] | Cytotoxicity threshold (tolerance), WST-1 and LDH [2] | Reduction of bacterial load after different infection durations ([5]; 200 µM for 4 h, started 0.5, 1 or 2 h post-infection (Figure 4D)) | Reduction of bacterial load (CFU counts) ([5]; 200 µM topical, 4 h treatment, versus PBS (Figure 4B), p < 0.05) | Reduction of bacterial load (CFU counts) ([5]; 200 µM topical, 4 h treatment, versus untreated control (Figure 4C), p < 0.001) | Effective bactericidal concentration ([5]; ex vivo wounded human skin, 4 h treatment)
N=C(N)NCCC[C@H](NC(=O)[C@H](Cc1c[nH]c2ccccc12)NC(=O)[C@H](CCC(N)=O)NC(=O)[C@H](Cc1c[nH]c2ccccc12)NC(=O)[C@H](CCCNC(=N)N)NC(=O)[C@@H](N)CCCNC(=N)N)C(=O)NCCCC[C@H](NC(=O)[C@H](CCCNC(=N)N)NC(=O)[C@H](Cc1c[nH]c2ccccc12)NC(=O)[C@H](CCC(N)=O)NC(=O)[C@H](Cc1c[nH]c2ccccc12)NC(=O)[C@H](CCCNC(=N)N)NC(=O)[C@@H](N)CCCNC(=N)N)C(=O)NCCCCCC(=O)N[C@@H](CSSC[C@H](NC(=O)CCCCCNC(=O)[C@H](CCCCNC(=O)[C@H](CCCNC(=N)N)NC(=O)[C@H](Cc1c[nH]c2ccccc12)NC(=O)[C@H](CCC(N)=O)NC(=O)[C@H](Cc1c[nH]c2ccccc12)NC(=O)[C@H](CCCNC(=N)N)NC(=O)[C@@H](N)CCCNC(=N)N)NC(=O)[C@H](CCCNC(=N)N)NC(=O)[C@H](Cc1c[nH]c2ccccc12)NC(=O)[C@H](CCC(N)=O)NC(=O)[C@H](Cc1c[nH]c2ccccc12)NC(=O)[C@H](CCCNC(=N)N)NC(=O)[C@@H](N)CCCNC(=N)N)C(N)=O)C(N)=O [LBT] (I: H-RRWQWRK[Ahx]C-NH2 / II: H-RRWQWRK[Ahx]C-NH2 / III: H-RRWQWR / IV: H-RRWQWR; amide I:7-III:C, II:7-IV:C; disulfide I:9-II:9; N-terminus and C-terminus assumed) | up to 120 min | > 3 log | 120 min | 30 µM | 30 µM | 15 µM | 30 µM | effectively neutralize | not observed | minimal and non-significant reductions |  |  |  |  |  |  | 
N=C(N)NCCC[C@H](NC(=O)[C@H](Cc1c[nH]c2ccccc12)NC(=O)[C@H](CCC(N)=O)NC(=O)[C@H](Cc1c[nH]c2ccccc12)NC(=O)[C@H](CCCNC(=N)N)NC(=O)[C@@H](N)CCCNC(=N)N)C(=O)NC[C@H](NC(=O)[C@H](CCCNC(=N)N)NC(=O)[C@H](Cc1c[nH]c2ccccc12)NC(=O)[C@H](CCC(N)=O)NC(=O)[C@H](Cc1c[nH]c2ccccc12)NC(=O)[C@H](CCCNC(=N)N)NC(=O)[C@@H](N)CCCNC(=N)N)C(=O)NCCCCCC(=O)N[C@@H](CSSC[C@H](NC(=O)CCCCCNC(=O)[C@H](CNC(=O)[C@H](CCCNC(=N)N)NC(=O)[C@H](Cc1c[nH]c2ccccc12)NC(=O)[C@H](CCC(N)=O)NC(=O)[C@H](Cc1c[nH]c2ccccc12)NC(=O)[C@H](CCCNC(=N)N)NC(=O)[C@@H](N)CCCNC(=N)N)NC(=O)[C@H](CCCNC(=N)N)NC(=O)[C@H](Cc1c[nH]c2ccccc12)NC(=O)[C@H](CCC(N)=O)NC(=O)[C@H](Cc1c[nH]c2ccccc12)NC(=O)[C@H](CCCNC(=N)N)NC(=O)[C@@H](N)CCCNC(=N)N)C(N)=O)C(N)=O [LBT-1] (I: H-RRWQWR[Dap][Ahx]C-NH2 / II: H-RRWQWR[Dap][Ahx]C-NH2 / III: H-RRWQWR / IV: H-RRWQWR; amide I:7-III:C, II:7-IV:C; disulfide I:9-II:9; N-terminus and C-terminus assumed) | up to 120 min | > 3 log | ≤ 30 min | 15 µM | 15 µM | 7.5 µM | 15 µM | effectively neutralize | not observed | dose-dependent reduction | > 3 log | 15 µM | 7.5 to 15 µM | significantly reduced bacterial load in all groups | significant decrease | significantly reduced bacterial load | 200 µM

— publication PMC12705620 (Frontiers in Pharmacology, 2025)
